Laboratory results from patent US9441012B2, “Fluorinated epoxyketone-based compounds and uses thereof as proteasome inhibitors” (FLUORINOV PHARMA INC., priority 2012, dated 2016).

Tests used:
Test in all cases: NCI 60 human tumor cell line screen (SRB)
Type in all cases: cell-based
CAKI-1 = CAKI-1 (Renal Cancer); 48 h
OVCAR-3 = OVCAR-3 (Ovarian Cancer); 48 h
Procedure, shortened: (§1)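 Cells plated 24 h before dosing, with time-zero plates TCA-fixed at drug addition; five concentrations (10-fold or ½-log dilutions) added and incubated 48 h at 37 °C, 5% CO2. Adherent cells fixed with 10% TCA, stained with 0.4% SRB, absorbance read at 515 nm; GI50, TGI and LC50 derived from percentage growth versus time zero and control.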

PC-3 = PC-3 (Prostate Cancer); 48 h
Procedure, shortened: as §1

MCF7 = MCF7 (Breast Cancer); 48 h
Procedure, shortened: as §1

SF-268 = SF-268 (CNS Cancer); 48 h
Procedure, shortened: as §1

K-562 = K-562 (Leukemia); 48 h
Procedure, shortened: as §1

HCT-116 = HCT-116 (Colon Cancer); 48 h
Procedure, shortened: as §1

SK-OV-3 = SK-OV-3 (Ovarian Cancer); 48 h
Procedure, shortened: as §1

786-0 = 786-0 (Renal Cancer); 48 h
Procedure, shortened: as §1

A549/ATCC = A549/ATCC (Non-Small Cell Lung Cancer); 48 h
Procedure, shortened: as §1

HCT-15 = HCT-15 (Colon Cancer); 48 h
Procedure, shortened: as §1

SW-620 = SW-620 (Colon Cancer); 48 h
Procedure, shortened: as §1

| Structure (SMILES) | Log10GI50 (CAKI-1) | Log10LC50 (CAKI-1) | Log10TGI50 (CAKI-1) | Log10GI50 (OVCAR-3) | Log10LC50 (OVCAR-3) | Log10TGI50 (OVCAR-3) | Log10GI50 (PC-3) | Log10LC50 (PC-3) | Log10TGI50 (PC-3) | Log10GI50 (MCF7) | Log10LC50 (MCF7) | Log10TGI50 (MCF7) | Log10GI50 (SF-268) | Log10LC50 (SF-268) | Log10TGI50 (SF-268) | Log10GI50 (K-562) | Log10LC50 (K-562) | Log10TGI50 (K-562) | Log10GI50 (HCT-116) | Log10LC50 (HCT-116) | further results |
| --- | --- | --- | --- | --- | --- | --- | --- | --- | --- | --- | --- | --- | --- | --- | --- | --- | --- | --- | --- | --- | --- |
| Cc1ncc(C(=O)N[C@@H](COC(F)F)C(=O)N[C@@H](COC(F)F)C(=O)N[C@@H](Cc2ccccc2)C(=O)[C@@]2(C)CO2)s1 [Example 1, 2-methyl-thiazole-5-carboxylic acid ((S)-1-{(S)-1-[(S)-1-benzyl-2-((R)-2-methyloxiranyl)-2-oxo-ethylcarbamoyl]-2-difluoromethoxyethylcarbamoyl}-2-difluoromethoxyethyl)-amide] | −6.40 | >−4.00 | −5.28 | −7.46 | −6.30 | −6.90 | −6.48 | >−4.00 | −4.99 | −7.35 | >−4.00 | −4.62 | −6.98 | >−4.00 | −5.90 | −6.50 | >−4.00 | >−4.00 | −7.32 | −6.17 | Log10TGI50 (HCT-116): −6.71; Log10GI50 (SK-OV-3): −6.06; Log10LC50 (SK-OV-3): >−4.00; Log10TGI50 (SK-OV-3): >−4.00; Log10GI50 (786-0): −6.43; Log10LC50 (786-0): >−4.00; Log10TGI50 (786-0): −4.62; Log10GI50 (A549/ATCC): −6.41; Log10LC50 (A549/ATCC): >−4.00; Log10TGI50 (A549/ATCC): >−4.00; Log10GI50 (HCT-15): −5.65; Log10LC50 (HCT-15): −4.16; Log10TGI50 (HCT-15): −4.93; Log10GI50 (SW-620): −7.39; Log10LC50 (SW-620): −4.40; Log10TGI50 (SW-620): −5.95 |
| CC(C)C[C@H](NC(=O)[C@H](Cc1ccccc1)NC(=O)[C@H](COC(F)F)NC(=O)CN1CCOCC1)C(=O)[C@@]1(C)CO1 [Example 25, (2S)-2-[[(2S)-3-(difluoromethoxy)-2-[(2-morpholinoacetyl)amino]propanoyl]amino]-N-[(1S)-3-methyl-1-[(2R)-2-methyloxirane-2-carbonyl]butyl]-3-phenyl-propanamide] | −6.72 | >−4.00 | −6.09 | −7.66 | −6.97 | −7.33 | −7.45 | −5.14 | −6.80 | −7.53 | >−4.00 | −4.89 | −7.60 | >−4.00 | −7.14 | −7.41 | >−4.00 | >−4.00 | −7.70 | −6.55 | Log10TGI50 (HCT-116): −7.30; Log10GI50 (SK-OV-3): −7.30; Log10TGI50 (SK-OV-3): −6.60; Log10GI50 (786-0): −7.20; Log10LC50 (786-0): −5.44; Log10TGI50 (786-0): −6.49; Log10GI50 (A549/ATCC): −7.41; Log10LC50 (A549/ATCC): >−4.00; Log10TGI50 (A549/ATCC): −6.13; Log10GI50 (HCT-15): −6.47; Log10LC50 (HCT-15): >−4.00; Log10TGI50 (HCT-15): >−4.00; Log10GI50 (SW-620): −7.41; Log10LC50 (SW-620): >−4.00; Log10TGI50 (SW-620): −5.93 |
| C[C@]1(C(=O)[C@H](Cc2ccccc2)NC(=O)[C@H](COC(F)F)NC(=O)[C@H](COC(F)F)NC(=O)CN2CCOCC2)CO1 [Example 26, (S)-N-{(S)-1-[(S)-1-Benzyl-2-((R)-2-methyl-oxiranyl)-2-oxo-ethylcarbamoyl]-2-difluoromethoxyethyl}-3-difluoromethoxy-2-(2-morpholin-4-yl-acetylamino)-propio-namide] | −6.72 | >−4.00 | −6.09 | −7.66 | −6.97 | −7.33 | −7.45 | −5.14 | −6.80 | −7.53 | >−4.00 | −4.89 | −7.60 | >−4.00 | −7.14 | −7.41 | >−4.00 | >−4.00 | −7.70 | −6.55 | Log10TGI50 (HCT-116): −7.30; Log10GI50 (SK-OV-3): −7.30; Log10TGI50 (SK-OV-3): −6.60; Log10GI50 (786-0): −7.20; Log10LC50 (786-0): −5.44; Log10TGI50 (786-0): −6.49; Log10GI50 (A549/ATCC): −7.41; Log10LC50 (A549/ATCC): >−4.00; Log10TGI50 (A549/ATCC): −6.13; Log10GI50 (HCT-15): −6.47; Log10LC50 (HCT-15): >−4.00; Log10TGI50 (HCT-15): >−4.00; Log10GI50 (SW-620): −7.41; Log10LC50 (SW-620): >−4.00; Log10TGI50 (SW-620): −5.93 |
| C[C@]1(C(=O)[C@H](Cc2ccccc2)NC(=O)[C@H](Cc2ccccc2)NC(=O)[C@H](COC(F)F)NC(=O)CN2CCOCC2)CO1 [Example 29] | −6.56 | >−4.00 | −5.94 | −7.35 | −5.66 | −6.71 | −7.04 | >−4.00 | −6.40 | −7.38 | >−4.00 | >−4.00 | −7.27 | >−4.00 | −6.50 | −7.00 | >−4.00 | >−4.00 | −7.46 | >−4.00 | Log10TGI50 (HCT-116): −5.91; Log10GI50 (SK-OV-3): −6.46; Log10LC50 (SK-OV-3): >−4.00; Log10TGI50 (SK-OV-3): −5.78; Log10GI50 (786-0): −6.55; Log10LC50 (786-0): −4.87; Log10TGI50 (786-0): −5.96; Log10GI50 (A549/ATCC): −6.68; Log10LC50 (A549/ATCC): >−4.00; Log10TGI50 (A549/ATCC): >−4.00; Log10GI50 (HCT-15): −6.20; Log10LC50 (HCT-15): >−4.00; Log10TGI50 (HCT-15): >−4.00; Log10GI50 (SW-620): −7.40; Log10LC50 (SW-620): >−4.00; Log10TGI50 (SW-620): −4.92 |
